Measurements taken from patent publication US9981940B2, “Aryl sulfide derivatives and aryl sulfoxide derivatives as acaricides and insecticides” (BAYER CROPSCIENCE AKTIENGESELLSCHAFT, priority 2013, dated 2018).

Key:
[1] = tested on: Lucilia cuprina; assay: Lucilia cuprina test (LUCICU); type: in vivo; details: application rate of 100 ppm; L1 larvae; after 2 days
Method: Lucilia cuprina Test (LUCICU)
• Solvent: dimethyl sulphoxide
To prepare an appropriate active ingredient formulation, 10 mg of active ingredient are mixed with 0.5 ml of dimethyl sulphoxide, and the concentrate is diluted with water to the desired concentration.
About 20 L1 larvae of the Australian sheep blowfly (Lucilia cuprina) are transferred into a test vessel containing minced horsemeat and the active ingredient preparation of the desired concentration.
After 2 days, the kill in % is determined 100% means that all the larvae have been killed; 0% means that none of the larvae have been killed.

[2] = tested on: Tetranychus urticae; assay: Tetranychus urticae spray test, OP-resistant (TETRUR); type: in vivo; details: application rate of 500 g/ha, after 6 days
In short: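 Bean leaf discs infested with all stages of an OP-resistant Tetranychus urticae strain sprayed with compound in acetone/DMF with alkylaryl polyglycol ether emulsifier, diluted in water. Efficacy in % scored after 6 days; 100% means all mites killed.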

[3] = tested on: Meloidogyne incognita; assay: Meloidogyne incognita test (MELGIN); type: in vivo; details: application rate of 20 ppm; after 14 days, by formation of galls
Method: Meloidogyne Incognita Test (MELGIN)
• Solvent: 125.0 parts by weight of acetone
To produce an appropriate active ingredient formulation, 1 part by weight of active ingredient is mixed with the specified amounts of solvent and the concentrate is diluted to the desired concentration with water.
Vessels are filled with sand, active ingredient solution, an egg/larvae suspension of the southern root-knot nematode (Meloidogyne incognita) and lettuce seeds. The lettuce seeds germinate and the plants develop. The galls develop on the roots
After 14 days, the nematicidal efficacy in % is determined by the formation of galls. 100% means that no galls have been found; 0% means that the number of galls on the treated plants corresponds to the untreated control.

[4] = log P by HPLC (OECD Guideline 117), method [a] acidic range; type: physicochemical; details: for chromatographic logP: reversed-phase C18 HPLC column, acidic range
Method: (§1) The log P values were determined analogously to OECD Guideline 117 (EC Directive 92/69/EEC) by HPLC (high-performance liquid chromatography) using reversed-phase columns (C 18), by the following methods:
[a] The LC-MS determination in the acidic range is effected at pH 2.7 with 0.1% aqueous formic acid and acetonitrile (contains 0.1% formic acid) as eluents; linear gradient from 10% acetonitrile to 95% acetonitrile.

[5] = log P by HPLC (OECD Guideline 117), method [b] neutral range; type: physicochemical; details: HPLC
Method: as §1
[b] The LC-MS determination in the neutral range is effected at pH 7.8 with 0.001 molar aqueous ammonium hydrogencarbonate solution and acetonitrile as eluents; linear gradient from 10% acetonitrile to 95% acetonitrile.

[6] = tested on: Boophilus microplus; assay: Boophilus microplus injection test (BOOPMI Inj); type: in vivo; details: application rate of 20 μg/animal, assessed after 7 days by laying of fertile eggs
In short: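 Engorged adult female ticks (5 per test) injected in the abdomen with 1 μl of compound solution in DMSO, then held in a climate-controlled room. Efficacy scored after 7 days from fertile egg laying, with 100% meaning no fertile eggs and 0% all eggs fertile.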

[7] = tested on: Myzus persicae; assay: Myzus persicae spray test (MYZUPE); type: in vivo; details: application rate of 100 g/ha; after 6 days
Method: Myzus persicae—Spray Test (MYZUPE)
• Solvent: 78 parts by weight of acetone • 1.5 parts by weight of dimethylformamide • Emulsifier: 0.5 part by weight of alkylaryl polyglycol ether
To produce an appropriate active ingredient formulation, 1 part by weight of active ingredient is mixed with the specified amounts of solvent and emulsifier, and the concentrate is diluted to the desired concentration with emulsifier-containing water.
Discs of Chinese cabbage leaves (Brassica pekinensis) infested by all stages of the green peach aphid (Myzus persicae) are sprayed with an active ingredient formulation of the desired concentration.
After 6 days, the activity in % is determined 100% means that all the aphids have been killed; 0% means that none of the aphids have been killed.

[8] = tested on: Phaedon cochleariae; assay: Phaedon cochleariae spray test (PHAECO); type: in vivo; details: application rate of 500 g/ha; after 7 days
In short: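 Chinese cabbage (Brassica pekinensis) leaf discs sprayed with acetone/DMF/emulsifier formulation diluted in emulsifier-containing water, dried, then populated with mustard beetle larvae. Efficacy scored after 7 days as % larvae killed (100% = all killed, 0% = none).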

[9] = tested on: Spodoptera frugiperda; assay: Spodoptera frugiperda spray test (SPODFR); type: in vivo; details: application rate of 500 g/ha; after 7 days
Method: Spodoptera frugiperda—Spray Test (SPODFR)
• Solvent: 78.0 parts by weight of acetone • 1.5 parts by weight of dimethylformamide • Emulsifier: alkylaryl polyglycol ether
To produce an appropriate active ingredient formulation, 1 part by weight of active ingredient is dissolved using the specified parts by weight of solvent and made up with water containing an emulsifier concentration of 1000 ppm until the desired concentration is attained. To produce further test concentrations, the preparation is diluted with emulsifier-containing water.
Leaf discs of maize (Zea mays) are sprayed with an active ingredient formulation of the desired concentration and, after drying, populated with caterpillars of the armyworm (Spodoptera frugiperda).
After 7 days, the activity in % is determined 100% means that all caterpillars have been killed; 0% means that none of the caterpillars have been killed.

Cc1cc(F)c(-n2ncn(C(C)C)c2=O)cc1SCC(F)(F)F [Example 4, 2-{2-Fluoro-4-methyl-5-[(2,2,2-trifluoroethyl)sulphanyl]phenyl}-4-isopropyl-2,4-dihydro-3H-1,2,4-triazol-3-one]
efficacy (kill) [1]: 80%
pest or weed control at 500 g/ha ([2]; Tetranychus urticae, 144 h, read-out: efficacy): 90%
nematicidal efficacy [3]: 90%
chromatographic logP ([4]; pH 2.7, HPLC method [a], read-out: logP[a]): 2.82
chromatographic logP ([4]; pH 2.7, HPLC, pH 2.7, read-out: log P[a]): 2.82
chromatographic logP ([5]; reversed-phase C18 HPLC column, neutral range, pH 7.8): 2.97

CCCn1c(OC)nn(-c2cc([S+]([O-])CC(F)(F)F)c(C)cc2F)c1=O (stereo not shown) [Example 411]
efficacy [6]: 100%
efficacy [7]: 90%
efficacy [8]: 100%
efficacy [9]: 100%
efficacy [2]: 100%
logP[a] ([4]; HPLC, method [a] acidic range): 2.44
logP[b] ([5]; method [b] neutral range): 2.41
